# B1: DNAse: rh-Dornase alfa (recombinant human DNase, Roche) diluted in mixing solvent; C2 0.97 μg/mL, C4 3.90 μg/mL (protein, UniProt P24855 23-282, looked up)
# Deoxyribonuclease-1: LKIAAFNIQTFGETKMSNATLVSYIVQILSRYDIALVQEVRDSHLTAVGKLLDNLNQDAPDTYHYVVSEPLGRNSYKERYLFVYRPDQVSAVDSYYYDDGCEPCGNDTFNREPAIVRFFSRFTEVREFAIVPLHAAPGDAVAEIDALYDVYLDVQEKWGLEDVMLMGDFNAGCSYVRPSQWSSIRLWTSPTFQWLIPDSADTTATPTHCAYDRIVVAGMLLRGAVVPDSALPFNFQAAYGLSDQLAQAISDHYPVEVMLK
# Tests used:
# [1] = Chelating capacity: remaining Calcium (unchelated); assay type: physicochemical; details: pH 7.0
# Protocol: The following solutions were prepared in Mixing solvent (MS) at pH 7.0. All solutions were supplemented with ZnCl2 (1 ppm), CaCl2 (100 ppm) and MgCl2 (25 ppm). The concentrations of Zn, Ca and Mg used here, were close to those typically found in exudates from chronic wounds. The pH chosen for the reaction (7.0) would result from the combination of compositions of present invention (pH 5.5) and the exudate from a chronic wound (pH 8.5). Prepared solutions were: EDTA (0.25, 0.50 and 0.75 mg/mL) as indicated in example 1; M0, M13, […] were elaborated according to examples 18 to 21. and LAPS deproteinized: Over a LAPS 24 h sample obtained according to example 1, a deproteinization process was performed using reagents and indications of the commercial kit employed. Measurement of remaining Calcium (unchelated) in the prepared solutions: A commercial Calcium measurement kit (Wiener Lab) was used. This is a colorimetric method based on the reaction of calcium with o-cresolphthalein complexone (o-CPC) at alkaline pH, giving a photocolorimetrically measurable magenta complex at 570 nm.
# [2] = Chelating capacity: remaining Zinc (unchelated); assay type: physicochemical; details: pH 7.0; EDTA at all concentrations tested; combination of Zinc, Calcium and Magnesium
# Protocol: The following solutions were prepared in Mixing solvent (MS) at pH 7.0. All solutions were supplemented with ZnCl2 (1 ppm), CaCl2 (100 ppm) and MgCl2 (25 ppm). The concentrations of Zn, Ca and Mg used here, were close to those typically found in exudates from chronic wounds. The pH chosen for the reaction (7.0) would result from the combination of compositions of present invention (pH 5.5) and the exudate from a chronic wound (pH 8.5). Prepared solutions were: EDTA (0.25, 0.50 and 0.75 mg/mL) as indicated in example 1; M0, M13, […] were elaborated according to examples 18 to 21. and LAPS deproteinized: Over a LAPS 24 h sample obtained according to example 1, a deproteinization process was performed using reagents and indications of the commercial kit employed. Measurement of remaining Zinc (unchelated) in the prepared solutions: A commercial Zinc measurement kit (Randox Lab) was used. This is a colorimetric method based on the reaction of Zinc with Dimethylglyoxime and Salicylaldoxin at alkaline pH, giving a colored complex photocolorimetrically measurable at 560 nm. For the determination of Zinc in LAPS, a previous deproteinization step was necessary. Therefore, equal parts of LAPS and deproteinizing reagent (Trichloroacetic Acid 370 mmol/L) were mixed in conical tubes, homogenized and centrifuged for 10 min at 10,000×g. The supernatant was used for the test.
# VEGF [3] = experiment: VEGF expression in keratinocytes HaCaT (real-time PCR); assay type: cell-based, human; details: Ethosuximide 3.0 mg/mL, 24 hours, FIG. 19
# Protocol: (§1) Cell lines were grown and maintained following the protocols of the American Type Culture Collection (ATCC, Rockville, MD, USA), using Minimum Essential Medium (MEM), Fetal Bovine Serum (FBS), L-glutamine.
# (§2) To evaluate the expression of the VEGF genes, the following cell lines were used: • a. Murine macrophage cell line J774 (ATCC), stimulated with 25 ng/mL of lipopolysaccharides (LPS) from E. coli (L-8274, Sigma). • b. Adult human skin keratinocytes cell line HaCaT(ATCC).
# (§3) Cells were plated for 24 hours with Ethosuximide at different concentrations to evaluate their effect on gene expression.
# (§4) Monolayers of the J774 Macrophage cell lines and HaCaT Keratinocytes were used, until confluent cells were obtained, which were stimulated with Ethosuximide at 0.5 and 3.0 mg/mL as indicated in example 1, in 12-well plates, at a final volume of 300 μL/well. For the J774 macrophage line, all treatments were supplemented with LPS (25 ng/mL), using MEM 1× with LPS (25 ng/mL) as control (Control+LPS). HaCaT keratinocytes were treated with the concentrations of ethosuximide in MEM with 10% FBS, using 1× MEM as a control. […]
# (§5) Levels of VEGF and GAPDH mRNA were measured in triplicate for each sample using the StepOnePlus Real-Time PCR Systems (Applied Biosystems) and the Power Up SYBR Green Master Mix (ROCHE) kit. […] Group means were determined and normalized to the MEM group for each experiment.
# [4] = system: chicken chorioallantoic membrane; experiment: Chicken Chorioallantoic Membrane Assay (CAM), angiogenesis; assay type: in vivo; details: 300 μl onto the chorioallantoic membrane; 24 and 48 hours; ethosuximide solutions 0.5 and 3.0 mg/mL; FIG. 18
# Source text: Angiogenesis is a complex biological process involving the generation of new blood vessels from the pre-existing vasculature. The process involves the cooperation of several different cell types, and in particular involves proliferation, survival, and tissue invasion by activated endothelial cells. Most investigations of angiogenesis include at least one in vivo study. The Chicken Chorioallantoic Membrane Assay (CAM) is suitable for a variety of applications. In this assay, the angiogenic properties of different concentrations of ethosuximide and lactic acid and the mixtures were tested.
# Eggs commercial lines with a weight between 30-90 g were used. By using an ovoscope the viability of the chorioallantoic membrane was determined to select only fertilized and viable eggs. […]
# Then, 300 μl of the following solutions were slowly placed onto the chorioallantoic membrane: Ethosuximide 3.0 mg/mL; Ethosuximide 0.5 mg/mL; M0; M13; M15; LAPS; Negative control (PBS). Each solution was evaluated by triplicade. […]
# Angiogenesis tests: Digital images analysis was made by using the software Image J plus. The length of vascularization (cm) per CAM area (cm^2) was evaluated before solution addition (basal) and after 24 and 48 hours. Then, the percentage of increase of vascularization was calculated.
# VEGF [5] = experiment: VEGF expression in macrophages J774 (real-time PCR); assay type: cell-based, Murine; details: Macrophages J774 + LPS 25 ng/mL; Ethosuximide 0.5 mg/mL; 24 hours; FIG. 19
# Protocol: as §1, §2, §3, §4, §5
# [6] = system: Intercellular adhesion molecule-1 (ICAM-1); details: cited from earlier work
# [7] = system: Staphylococcus aureus MTCC 96; details: cited from earlier work
# [8] = system: Pseudomonas aeruginosa. MTCC741; details: cited from earlier work
# highly polymerized DNA = experiment: DNAse activity halos in DNAse agar and conservation in time; assay type: biochemical; details: DNAse 0.97 μg/mL alone (C2); DNAse agar, 24 hours at 32° C.
# Source text: DNAse agar is a culture medium that contains highly polymerized DNA and agar as solidifying agents. The DNA is the substratum of the deoxyribonuclease enzyme (DNAse) which hydrolyzes it. This medium allows to detect DNAse activity in different samples and microorganisms. The presence of the enzyme could be visualized adding hydrochloric acid 1N. The hydrolyzed deoxyribonucleic acid presents transparency while the polymerized deoxyribonucleic acid precipitates generating resulting in a opacity on the culture media
# Plates preparation: DNAse agar plates were prepared according to manufacturer recommendations (Britania, CABA, Argentina). A volume of 20 mL of the molten media was employed reaching an agar height of 2 mm in the plates. Wells of 5 mm o diameter were made over the agar using a sterile punch. Therefore, the sown volume in each well was π×r^2×h=π×(2.5 mm)^2×2 mm=40 mm=40 μL. […]
# Analyzed samples: LAPS, M0, M13, M15, M16 (All gelled with hydroxyethyl cellulose) stored at 25° C. and 4° C. DNAse activity was measured once a week for 6 months. […]
# Then, the plates were rested and were observed up to no more than 5 minutes after adding the HCl. DNase activity was measured analyzing the transparent evanescence around the planting zone recording in millimeters the halos diameter.
molecule,measurement,setting,value
"O=C(O)CN(CCN(CC(=O)O)CC(=O)O)CC(=O)O [EDTA, ethylenediaminetetraacetic acid]",Calcium chelation percentage,[1]; EDTA 0.25 mg/mL,not able to chelate all the available calcium
same,Calcium chelation percentage,"[1]; EDTA at 0.50, 0.75 and 1.00 mg/mL, combination of zinc, calcium and magnesium",completely
same,Zinc chelation percentage,[2],completely chelate
"CCC1(C)CC(=O)NC1=O (stereo not shown) [Ethosuximide, ethosuximide]",VEGF expression level normalized to GAPDH,VEGF [3],induced
same,percentage of increase of vascularization (angiogenic effect),[4],showed angiogenic properties although it was better at 0.5 mg/mL than 3.0 mg/mL
same,VEGF expression level normalized to GAPDH,VEGF [5],induced
"CC(=O)N[C@@H](CS)C(=O)O [NAC, N-acetyl cysteine]",ICAM-1 expression,[6],concentration dependent inhibition
"XYLENTRA®: synthetically engineered antimicrobial peptide of U.S. Pat. No. 10,285,938 B2",antibacterial activity,[7],significant antibacterial activity
same,antibacterial activity,[8],significant antibacterial activity
B1,halos of DNAse activity,highly polymerized DNA,8-10 mm

# Source: US12280051B2, “Pharmaceutical composition for topical wound treatment” (CONSEJO NACIONAL DE INVESTIGACIONES CIENTIFICAS Y TECNICAS, priority 2021, dated 2025)
